{"source": "paper PMC7377239", "about": "“Cardiovascular Effects of Polychlorinated Biphenyls and Their Major Metabolites” (Environmental Health Perspectives, 2020)", "key": {"[1]": {"system": "iCell cardiomyocytes (human iPSC-derived cardiomyocytes)", "assay": "High-content imaging of cytotoxicity and mitochondrial integrity in iPSC-CMs", "type": "cell-based", "details": "Homo sapiens, Cardiomyocyte; for viability at 0.01 µM / activity at 0.01 µM / viability at 0.1 µM / activity at 0.1 µM / viability at 1 µM / activity at 1 µM / viability at 10 µM / activity at 10 µM / viability at 100 µM / activity at 100 µM: 0.00 µM = 100.00; for viability at 0.1 µM / activity at 0.1 µM: 0.10 µM", "summary_of_the_method": "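Human iPSC-derived cardiomyocytes were seeded on gelatin-coated 384-well plates at 5,000 cells per well and maintained for 12 d. Test chemicals were added as 10μL of 5× solutions to final concentrations of 0.01 to 100μM. Cells were stained with Hoechst 33342 and MitoTracker™ Orange, fixed in formaldehyde, and imaged by confocal high-content microscopy at 10× magnification.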"}, "[2]": {"system": "HUVECs", "assay": "High-content imaging cytotoxicity in HUVECs, 24 h", "type": "cell-based, human", "details": "Homo sapiens, HUVEC, 24 h, HUVECs; for viability at 0.01 µM / activity at 0.01 µM: concentration 0.01 µM; for viability at 0.01 µM / activity at 0.01 µM / viability at 0.1 µM / activity at 0.1 µM / viability at 1 µM / activity at 1 µM / viability at 10 µM / activity at 10 µM / viability at 100 µM / activity at 100 µM: 0.00 µM = 100.00; for viability at 0.1 µM / activity at 0.1 µM: concentration 0.10 µM; for viability at 1 µM / activity at 1 µM: concentration 1.00 µM; for viability at 10 µM / activity at 10 µM: concentration 10.00 µM; for viability at 100 µM / activity at 100 µM: concentration 100.00 µM; for minimal effective concentration: MAX 100.00", "summary_of_the_method": "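Point-of-departure values derive from four-parameter logistic fits of vehicle-normalized imaging phenotypes (Hoechst 33342, MitoTracker Orange, calcein AM). The fits follow 24 h exposure of HUVEC monolayers at 37°C and 5% CO2, with a top tested concentration of 100μM.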"}, "[3]": {"details": "1.5 h, 90min, read-out: cm.cam.90min"}, "[4]": {"details": "1.5 h, 90min, read-out: cm.mii.90min"}, "[5]": {"details": "1.5 h, 90min, read-out: cm.mito.90min"}, "[6]": {"details": "1.5 h, 90min, read-out: cm.tc.90min"}, "[7]": {"details": "24 h, 24hrs, read-out: cm.cam.24hrs"}, "[8]": {"details": "24 h, 24hrs, read-out: cm.mii.24hrs"}, "[9]": {"details": "24 h, 24hrs, read-out: cm.mito.24hrs"}, "[10]": {"details": "24 h, 24hrs, read-out: cm.tc.24hrs"}, "[11]": {"details": "24 hr, read-out: huvec.cyto.24hr"}, "[12]": {"details": "24 hr, read-out: huvec.mito.24hr"}, "[13]": {"details": "24 hr, read-out: huvec.mitoint.24hr"}, "[14]": {"details": "24 hr, read-out: huvec.nma.24hr"}, "[15]": {"details": "24 hrs, read-out: huvec.tc.24hrs"}}, "note": "Like-named read-outs stand apart in the source and are kept apart here."}
{"compound": "Clc1ccc(Cl)c(-c2c(Cl)ccc(Cl)c2Cl)c1", "note": "[PCB95]", "values": [{"measurement": "viability at 0.01 µM", "setting": "[1]; [3]", "value": 98.2, "unit": "%"}, {"measurement": "activity at 0.01 µM", "setting": "[1]; [4]", "value": 114, "unit": "%"}, {"measurement": "activity at 0.01 µM", "setting": "[1]; [5]", "value": 97.8, "unit": "%"}, {"measurement": "viability at 0.01 µM", "setting": "[1]; [6]", "value": 97.9, "unit": "%"}, {"measurement": "viability at 0.1 µM", "setting": "[1]; [3]", "value": 95.8, "unit": "%"}, {"measurement": "activity at 0.1 µM", "setting": "[1]; [4]", "value": 100, "unit": "%"}, {"measurement": "activity at 0.1 µM", "setting": "[1]; [5]", "value": 95.4, "unit": "%"}, {"measurement": "viability at 0.1 µM", "setting": "[1]; [6]", "value": 95.4, "unit": "%"}, {"measurement": "viability at 1 µM", "setting": "[1]; [3]", "value": 93.8, "unit": "%"}, {"measurement": "activity at 1 µM", "setting": "[1]; [4]", "value": 109, "unit": "%"}, {"measurement": "activity at 1 µM", "setting": "[1]; [5]", "value": 93.2, "unit": "%"}, {"measurement": "viability at 1 µM", "setting": "[1]; [6]", "value": 93.1, "unit": "%"}, {"measurement": "viability at 10 µM", "setting": "[1]; [3]", "value": 107, "unit": "%"}, {"measurement": "activity at 10 µM", "setting": "[1]; [4]", "value": 110, "unit": "%"}, {"measurement": "activity at 10 µM", "setting": "[1]; [5]", "value": 107, "unit": "%"}, {"measurement": "viability at 10 µM", "setting": "[1]; [6]", "value": 107, "unit": "%"}, {"measurement": "viability at 100 µM", "setting": "[1]; [3]", "value": 0.65, "unit": "%"}, {"measurement": "activity at 100 µM", "setting": "[1]; [4]", "value": 92.8, "unit": "%"}, {"measurement": "activity at 100 µM", "setting": "[1]; [5]", "value": 0.97, "unit": "%"}, {"measurement": "viability at 100 µM", "setting": "[1]; [6]", "value": 1.11, "unit": "%"}, {"measurement": "minimal effective concentration", "setting": "[1]; 1.5 h, 90min, read-out: cm.cam.90min POD", "value": 36.6, "unit": "µM"}, {"measurement": "minimal effective concentration", "setting": "[1]; 1.5 h, 90min, read-out: cm.mii.90min POD", "value": 100, "unit": "µM"}, {"measurement": "minimal effective concentration", "setting": "[1]; 1.5 h, 90min, read-out: cm.mito.90min POD", "value": 39.6, "unit": "µM"}, {"measurement": "minimal effective concentration", "setting": "[1]; 1.5 h, 90min, read-out: cm.tc.90min POD", "value": 38.7, "unit": "µM"}, {"measurement": "viability at 0.01 µM", "setting": "[1]; [7]", "value": 97.2, "unit": "%"}, {"measurement": "activity at 0.01 µM", "setting": "[1]; [8]", "value": 90.3, "unit": "%"}, {"measurement": "activity at 0.01 µM", "setting": "[1]; [9]", "value": 95.7, "unit": "%"}, {"measurement": "viability at 0.01 µM", "setting": "[1]; [10]", "value": 97.3, "unit": "%"}, {"measurement": "viability at 0.1 µM", "setting": "[1]; [7]", "value": 98.9, "unit": "%"}, {"measurement": "activity at 0.1 µM", "setting": "[1]; [8]", "value": 99, "unit": "%"}, {"measurement": "activity at 0.1 µM", "setting": "[1]; [9]", "value": 99, "unit": "%"}, {"measurement": "viability at 0.1 µM", "setting": "[1]; [10]", "value": 99, "unit": "%"}, {"measurement": "viability at 1 µM", "setting": "[1]; [7]", "value": 99.8, "unit": "%"}, {"measurement": "activity at 1 µM", "setting": "[1]; [8]", "value": 100, "unit": "%"}, {"measurement": "activity at 1 µM", "setting": "[1]; [9]", "value": 97.7, "unit": "%"}, {"measurement": "viability at 1 µM", "setting": "[1]; [10]", "value": 98.7, "unit": "%"}, {"measurement": "viability at 10 µM", "setting": "[1]; [7]", "value": 93.8, "unit": "%"}, {"measurement": "activity at 10 µM", "setting": "[1]; [8]", "value": 95.1, "unit": "%"}, {"measurement": "activity at 10 µM", "setting": "[1]; [9]", "value": 92.7, "unit": "%"}, {"measurement": "viability at 10 µM", "setting": "[1]; [10]", "value": 93.5, "unit": "%"}, {"measurement": "viability at 100 µM", "setting": "[1]; [7]", "value": 1.96, "unit": "%"}, {"measurement": "activity at 100 µM", "setting": "[1]; [8]", "value": 34.3, "unit": "%"}, {"measurement": "activity at 100 µM", "setting": "[1]; [9]", "value": 1.73, "unit": "%"}, {"measurement": "viability at 100 µM", "setting": "[1]; [10]", "value": 2.9, "unit": "%"}, {"measurement": "minimal effective concentration", "setting": "[1]; 24 h, read-out: cm.cam.24hrs POD", "value": 8.98, "unit": "µM"}, {"measurement": "minimal effective concentration", "setting": "[1]; 24 h, read-out: cm.mii.24hrs POD", "value": 22.2, "unit": "µM"}, {"measurement": "minimal effective concentration", "setting": "[1]; 24 h, read-out: cm.mito.24hrs POD", "value": 8.96, "unit": "µM"}, {"measurement": "minimal effective concentration", "setting": "[1]; 24 h, read-out: cm.tc.24hrs POD", "value": 8.75, "unit": "µM"}, {"measurement": "viability at 0.01 µM", "setting": "[2]; [11]", "value": 81, "unit": "%"}, {"measurement": "activity at 0.01 µM", "setting": "[2]; [12]", "value": 79.4, "unit": "%"}, {"measurement": "activity at 0.01 µM", "setting": "[2]; [13]", "value": 106, "unit": "%"}, {"measurement": "activity at 0.01 µM", "setting": "[2]; [14]", "value": 97.4, "unit": "%"}, {"measurement": "viability at 0.1 µM", "setting": "[2]; [11]", "value": 85.5, "unit": "%"}, {"measurement": "activity at 0.1 µM", "setting": "[2]; [12]", "value": 84.2, "unit": "%"}, {"measurement": "activity at 0.1 µM", "setting": "[2]; [13]", "value": 109, "unit": "%"}, {"measurement": "activity at 0.1 µM", "setting": "[2]; [14]", "value": 98.6, "unit": "%"}, {"measurement": "viability at 1 µM", "setting": "[2]; [11]", "value": 94.8, "unit": "%"}, {"measurement": "activity at 1 µM", "setting": "[2]; [12]", "value": 93.4, "unit": "%"}, {"measurement": "activity at 1 µM", "setting": "[2]; [13]", "value": 106, "unit": "%"}, {"measurement": "activity at 1 µM", "setting": "[2]; [14]", "value": 98.7, "unit": "%"}, {"measurement": "viability at 10 µM", "setting": "[2]; [11]", "value": 70.3, "unit": "%"}, {"measurement": "activity at 10 µM", "setting": "[2]; [12]", "value": 63.8, "unit": "%"}, {"measurement": "activity at 10 µM", "setting": "[2]; [13]", "value": 76.7, "unit": "%"}, {"measurement": "activity at 10 µM", "setting": "[2]; [14]", "value": 86.4, "unit": "%"}, {"measurement": "viability at 100 µM", "setting": "[2]; [11]", "value": 64.5, "unit": "%"}, {"measurement": "activity at 100 µM", "setting": "[2]; [12]", "value": 50.7, "unit": "%"}, {"measurement": "activity at 100 µM", "setting": "[2]; [13]", "value": 18.7, "unit": "%"}, {"measurement": "activity at 100 µM", "setting": "[2]; [14]", "value": 56.5, "unit": "%"}, {"measurement": "minimal effective concentration", "setting": "[2]; 24 hr, read-out: huvec.cyto.24hr POD", "value": 0.01, "unit": "µM"}, {"measurement": "minimal effective concentration", "setting": "[2]; 24 hr, read-out: huvec.mito.24hr POD", "value": 0.022, "unit": "µM"}, {"measurement": "minimal effective concentration", "setting": "[2]; 24 hr, read-out: huvec.mitoint.24hr POD", "value": 7.41, "unit": "µM"}, {"measurement": "minimal effective concentration", "setting": "[2]; 24 hr, read-out: huvec.nma.24hr POD", "value": 1.93, "unit": "µM"}, {"measurement": "viability at 0.01 µM", "setting": "[2]; [15]", "value": 81, "unit": "%"}, {"measurement": "viability at 0.1 µM", "setting": "[2]; [15]", "value": 85.5, "unit": "%"}, {"measurement": "viability at 1 µM", "setting": "[2]; [15]", "value": 94.8, "unit": "%"}, {"measurement": "viability at 10 µM", "setting": "[2]; [15]", "value": 70.3, "unit": "%"}, {"measurement": "viability at 100 µM", "setting": "[2]; [15]", "value": 64.5, "unit": "%"}, {"measurement": "minimal effective concentration", "setting": "[2]; 24 hrs, read-out: huvec.tc.24hrs POD", "value": 0.01, "unit": "µM"}]}
